Results on 5 compounds are retold here after US11078198B2 (BRISTOL-MYERS SQUIBB COMPANY, priority 2017, dated 2021).

The test system of one experiment is Cyp7a1. Put plainly: Acute mouse in vivo assay, Cyp7a1 gene expression in liver. The conditions noted are these: @ 6 h. Here is the method:
(§1) Acute Mouse In Vivo Assay:
(§2) Male, C57BL6/NTac mice, weighing 25-28 g, are purchased from Taconic Labs (Hudson, N.Y.) and maintained on Teklad Global 18% Protein Rodent Diet (Harlan Laboratories). After 1 week acclimation, mice are sorted into groups based upon body weight. Mice are administered a single oral dose of vehicle or experimental compound. Systemic compound exposure is evaluated in plasma derived from blood collected via the submandibular vein at 1 hour post-dose, and at study termination (6 h). At study termination, the animals are euthanized and rapidly dissected. The medial lobe of the liver is divided, with one half being homogenized and analyzed for compound exposure, and the other half saved in RNAlater (Thermo-Fisher Scientific). The ileum is also dissected and preserved in RNAlater. Tissue samples in RNAlater are homogenized with MP Biomedicals' beads. RNA is extracted using the MagMax-96 Total RNA Isolation kit (Thermo-Fisher Scientific) according to the manufacturer's protocol. RNA Concentration is determined with the Nano-Drop 8000 Spectrophotometer (Thermo Fisher). Reverse transcription is done with Invitrogen's SuperScript® VILO cDNA Synthesis Kit according to the manufacturer's protocol. Real time PCR is done with Applied Biosystems' Taqman PCR master mixture according to the manufacturer's protocol. All primers are purchased from Thermo-Fisher Scientific. Mouse genes analyzed include Nr0b2 (which encodes the small heterodimer partner, SHP), Abcb11 (which encodes the bile salt excretion pump, BSEP), Cyp7a1, & Cyp8b1 in liver, and Fgf15, Fabp6 (which encodes ileal bile acid binding protein, I-BABP), Slc51a (which encodes organic solute transporter alpha subunit, OSTA), and Slc51b (which encodes organic solute transporter beta subunit, OSTB) in the ileum. The statistical significant changes in FGF15 gene expression are expressed as fold increase and CYP7A1 expression as a percent reduction relative to vehicle control.

For a further experiment, the system named is Fgf15. Put plainly: Acute mouse in vivo assay, Fgf15 gene expression in ileum. The conditions noted are these: @ 6 h. As for the experimental part:
as §1, §2

Another experiment deals with T1, human FXR (Homo sapiens, UniProt Q96RI1).
T1 construct: expressed in transfected cells; host or cells: HEK293 cells stably carrying a 5xGal4-response-element firefly luciferase reporter, transiently transfected with pcDNA3.1-Gal4-FXR
T1 sequence (Q96RI1 262-486 limits assumed): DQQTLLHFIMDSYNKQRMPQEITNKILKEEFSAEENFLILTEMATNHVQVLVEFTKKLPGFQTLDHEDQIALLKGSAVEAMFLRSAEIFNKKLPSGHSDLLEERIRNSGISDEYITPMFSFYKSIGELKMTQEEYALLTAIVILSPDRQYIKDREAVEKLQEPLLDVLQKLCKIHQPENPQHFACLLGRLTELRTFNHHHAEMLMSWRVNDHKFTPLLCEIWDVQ
Put plainly: transient human FXR/Gal4-luciferase reporter assay. The experiment is classed as cell-based. As to conditions: Gal4-hFXR transfected HEK293 reporter cells; relative to 8 μM GW-4064. The procedure, abridged: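 Transient Gal4-hFXR LBD fusion (pcDNA3.1, Lipofectamine, overnight) expressed in a HEK293 reporter line stably bearing five Gal4 elements upstream of firefly luciferase, grown in charcoal/dextran-stripped FBS. Compound dilutions in DMSO incubated with cells overnight at 37° C, 5% CO2, before luciferase readout.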

On to `O=C(O)c1cc(F)c2nc(N3CCC4(C=C(c5c(-c6c(Cl)cccc6Cl)noc5C5CC5)C4)CC3)sc2c1` [Example 1, 2-(2-(5-Cyclopropyl-3-(2,6-dichlorophenyl)isoxazol-4-yl)-7-azaspiro[3.5]non-1-en-7-yl)-4-fluorobenzo[d]thiazole-6-carboxylic acid], for which the “Cyp7a1 expression, percent reduction relative to vehicle control” value with Cyp7a1 (single oral dose 3 mg/kg) and in the experiment on Cyp7a1 (single oral dose 30 mg/kg) was −99% throughout. Also, the figures for the “Fgf15 expression, fold increase relative to vehicle control” value with Fgf15 (single oral dose 3 mg/kg) and in the experiment on Fgf15 (single oral dose 30 mg/kg) were “+18 ×” and “+31 ×”, respectively.

Take `O=C(O)c1ccc2cc(N3CCC4(C=C(c5c(-c6c(Cl)cccc6Cl)noc5C5CC5)C4)CC3)ccc2n1` [Example 20, 6-(2-(5-Cyclopropyl-3-(2,6-dichlorophenyl)isoxazol-4-yl)-7-azaspiro[3.5]non-1-en-7-yl) quinoline-2-carboxylic acid]: the “Cyp7a1 expression, percent reduction relative to vehicle control” value with Cyp7a1 (single oral dose 3 mg/kg) was −98%.

`O=C(O)c1cc(C(F)(F)F)c2cc(N3CCC4(C=C(c5c(-c6c(Cl)cncc6Cl)noc5C5CC5)C4)CC3)ccc2n1` [Example 85, 6-(2-(5-cyclopropyl-3-(3,5-dichloropyridin-4-yl)isoxazol-4-yl)-7-azaspiro[3.5]non-1-en-7-yl)-4-(trifluoromethyl)quinoline-2-carboxylic acid]: the “Cyp7a1 expression, percent reduction relative to vehicle control” value in the experiment on Cyp7a1 (single oral dose 3 mg/kg) was −94%.

In the case of `COc1cc(C(=O)O)nc2ccc(N3CCC4(C=C(c5c(-c6c(Cl)cncc6Cl)noc5C5CC5)C4)CC3)cc12` [Example 108, 6-(2-(5-Cyclopropyl-3-(3,5-dichloropyridin-4-yl)isoxazol-4-yl)-7-azaspiro[3.5]non-1-en-7-yl)-4-methoxyquinoline-2-carboxylic acid], the “Cyp7a1 expression, percent reduction relative to vehicle control” value with Cyp7a1 (single oral dose 3 mg/kg) is −97%. For the same compound, the EC50 (commonly the concentration needed to bring the measured effect to its halfway point) at human FXR is 32 nM. Besides, in the experiment with Fgf15 (single oral dose 3 mg/kg), the “Fgf15 expression, fold increase relative to vehicle control” value is reported as “+14 ×”.

Take `CS(=O)(=O)NC(=O)c1cc(C(F)(F)F)c2cc(N3CCC4(C=C(c5c(-c6c(Cl)cncc6Cl)noc5C5CC5)C4)CC3)ccc2n1` [Example 184, 6-(2-(5-Cyclopropyl-3-(3,5-dichloropyridin-4-yl)isoxazol-4-yl)-7-azaspiro[3.5]non-1-en-7-yl)-N-(methylsulfonyl)-4-(trifluoromethyl)quinoline-2-carboxamide]: the “Cyp7a1 expression, percent reduction relative to vehicle control” value in the experiment with Cyp7a1 (single oral dose 3 mg/kg) is −99%. The compound also yielded an EC50 at human FXR of 73 nM. For the same compound, the “Fgf15 expression, fold increase relative to vehicle control” value in the experiment on Fgf15 (single oral dose 3 mg/kg) is given as “+28 ×”.
